Measured values taken from patent publication US9694016B2 (Novartis AG, priority 2013, dated 2017).
Read-outs that look alike come from different tables or passages of the source.

Molecular target: b-Raf (V600E) (Homo sapiens (Human), UniProt P15056, V600E)
Conditions: read-out: b-Raf IC-50, AlphaScreen
[1] = 60 min pre-incubation, reaction 3 hours at room temperature
[2] = 60 min pre-incubation, 3 hours reaction

Chain of b-Raf (V600E) (P15056 whole entry V600E): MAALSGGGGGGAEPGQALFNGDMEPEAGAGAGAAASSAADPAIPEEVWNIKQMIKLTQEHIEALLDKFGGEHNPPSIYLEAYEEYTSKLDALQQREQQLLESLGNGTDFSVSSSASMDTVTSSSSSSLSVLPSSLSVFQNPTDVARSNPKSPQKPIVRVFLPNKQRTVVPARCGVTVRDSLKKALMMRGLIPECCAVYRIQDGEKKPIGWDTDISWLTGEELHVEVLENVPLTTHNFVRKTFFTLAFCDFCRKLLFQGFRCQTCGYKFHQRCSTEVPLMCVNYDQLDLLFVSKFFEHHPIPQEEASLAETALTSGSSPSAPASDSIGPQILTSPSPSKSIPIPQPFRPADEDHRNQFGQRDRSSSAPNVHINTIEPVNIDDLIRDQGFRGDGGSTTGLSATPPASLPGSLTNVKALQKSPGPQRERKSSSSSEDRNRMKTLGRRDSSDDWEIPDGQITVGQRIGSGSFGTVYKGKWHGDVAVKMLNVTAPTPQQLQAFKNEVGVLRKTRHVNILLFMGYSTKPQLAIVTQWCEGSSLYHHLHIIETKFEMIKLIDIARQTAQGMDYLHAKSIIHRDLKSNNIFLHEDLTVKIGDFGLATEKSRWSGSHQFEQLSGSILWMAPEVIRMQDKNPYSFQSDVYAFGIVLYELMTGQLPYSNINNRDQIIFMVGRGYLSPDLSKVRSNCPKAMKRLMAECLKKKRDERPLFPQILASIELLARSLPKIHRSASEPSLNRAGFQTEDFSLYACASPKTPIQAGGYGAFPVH

Cn1cc(-c2cc(NC(=O)c3ccnc(C(F)(F)F)c3)cnc2Cl)cc(N2CCOCC2)c1=O [Example 404, N-(2-chloro-1′-methyl-5′-morpholino-6′-oxo-1′,6′-dihydro-[3,3′-bipyridin]-5-yl)-2-(trifluoromethyl)isonicotinamide]
IC50 (Table 2, 3 hours reaction): 4.3 nM

Cc1ncc(NC(=O)c2ccnc(C(C)(C)O)c2)cc1-c1cnc(OC2CC3(COC3)C2)c(N2CCOCC2)c1 [Example 964, N-(6′-(2-oxaspiro[3.3]heptan-6-yloxy)-2-methyl-5′-morpholino-[3,3′-bipyridin]-5-yl)-2-(2-hydroxypropan-2-yl)isonicotinamide]
IC50 [1]: 8.13 nM

Cc1ccc(NC(=O)c2cccc(C(F)(F)F)c2)cc1-c1cc(N2CCOCC2)ccn1 [Example 111, N-(4-methyl-3-(4-morpholinopyridin-2-yl)phenyl)-3-(trifluoromethyl)benzamide]
IC50 (Table 2, 3 hours reaction): 0.5 nM

Cc1ccc(NC(=O)c2ccnc(C(C)(C)C#N)c2)cc1-c1cnc(OC(F)F)c(N2CCOCC2)c1 [Example 223, 2-(2-cyanopropan-2-yl)-N-(3-(6-(difluoromethoxy)-5-morpholinopyridin-3-yl)-4-methylphenyl)isonicotinamide]
IC50 (Table 2, 3 hours reaction): 2.2 nM

Cc1ncc(NC(=O)c2ccnc(C(F)F)c2)cc1-c1cc(N2CCOCC2)c(=O)n(C)c1 [Example 392, 2-(difluoromethyl)-N-(1′,2-dimethyl-5′-morpholino-6′-oxo-1′,6′-dihydro-[3,3′-bipyridin]-5-yl)isonicotinamide]
IC50 (Table 2, 3 hours reaction): 15.3 nM

Cc1ccc(NC(=O)c2ccnc(C(F)F)c2)cc1-c1cc(N2CCOCC2)nc(N2CCOCC2)c1 [Example 1115, 2-(difluoromethyl)-N-(3-(2,6-dimorpholinopyridin-4-yl)-4-methylphenyl)isonicotinamide]
IC50 [1]: 0.65 nM

Cc1ccc(NC(=O)c2cccc(C(F)(F)F)c2)cc1-c1cc(N2CCOCC2)nc(N2CC[C@@H](O)C2=O)c1 [Example 1065, (R)—N-(3-(2-(3-hydroxy-2-oxopyrrolidin-1-yl)-6-morpholinopyridin-4-yl)-4-methylphenyl)-3-(trifluoromethyl)benzamide]
IC50 [1]: 0.53 nM

CCN1CCN(c2cc(C(=O)Nc3ccc(C)c(-c4cc(N5CCOCC5)n(C)c(=O)c4)c3)cc(C(F)(F)F)c2)CC1 [Example 490, 3-(4-ethylpiperazin-1-yl)-N-(4-methyl-3-(1-methyl-6-morpholino-2-oxo-1,2-dihydropyridin-4-yl)phenyl)-5-(trifluoromethyl)benzamide]
IC50 [2]: 2.5 nM

Cc1ncc(NC(=O)c2cccc(-c3nnco3)c2)cc1-c1cc(N2CCOCC2)nc(N2CC(O)C2)c1 [Example 1092, N-(2′-(3-hydroxyazetidin-1-yl)-2-methyl-6′-morpholino-[3,4′-bipyridin]-5-yl)-3-(1,3,4-oxadiazol-2-yl)benzamide]
IC50 [1]: 34.9 nM

Cc1ncc(NC(=O)c2ccnc(C(C)(C)O)c2)cc1-c1cc(N2CCOCC2)nc(N2CC(O)C2)c1 [Example 1082, N-(2′-(3-hydroxyazetidin-1-yl)-2-methyl-6′-morpholino-[3,4′-bipyridin]-5-yl)-2-(2-hydroxypropan-2-yl)isonicotinamide]
IC50 [1]: 58.2 nM

COc1nnc(-c2cc(C(=O)Nc3ccnc(C(F)(F)F)c3)ccc2C)cc1N1CCOCC1 [Example 1018]
IC50 [1]: 1.76 nM

CCc1cc(C(=O)Nc2ccc(C)c(-c3cc(N4CCOCC4)c(=O)n(C)n3)c2)ccn1 [Example 642, 2-ethyl-N-(4-methyl-3-(1-methyl-5-morpholino-6-oxo-1,6-dihydropyridazin-3-yl)phenyl)isonicotinamide]
IC50 [2]: 1.4 nM

Cc1ncc(NC(=O)c2cc(C(C)(F)F)ccn2)cc1-c1cnc(OC(C)C)c(N2CCOCC2)c1 [Example 956, 4-(1,1-difluoroethyl)-N-(6′-isopropoxy-2-methyl-5-morpholino-[3,3′-bipyridin]-5-yl)picolinamide]
IC50 [1]: 2.94 nM

Cc1ccc(NC(=O)c2ccnc(C(C)(C)C#N)c2)cc1-c1cc(N2CCOCC2)nc(N2CC(C)(O)C2)c1 [Example 1110, 2-(2-cyanopropan-2-yl)-N-(3-(2-(3-hydroxy-3-methylazetidin-1-yl)-6-morpholinopyridin-4-yl)-4-methylphenyl)isonicotinamide]
IC50 [1]: 4.82 nM

CCOc1cc(-c2cc(NC(=O)c3ccnc(C4CC4)c3)cnc2C)cc(N2CCOCC2)n1 [Example 1149, 2-cyclopropyl-N-(2′-ethoxy-2-methyl-6′-morpholino-[3,4′-bipyridin]-5-yl)isonicotinamide]
IC50 [1]: 3.13 nM

Cc1ccc(NC(=O)c2cc(C3CC3)on2)cc1-c1cc(N2CCOCC2)c(=O)n(C)c1 [Example 372, 5-cyclopropyl-N-(4-methyl-3-(1-methyl-5-morpholino-6-oxo-1,6-dihydropyridin-3-yl)phenyl)isoxazole-3-carboxamide]
IC50 (Table 2, 3 hours reaction): 0.7 nM

Cc1ccc(NC(=O)c2ccnc(C(C)(C)C#N)c2)cc1-c1cc(N2CCOCC2)c(S(C)(=O)=O)nn1 [Example 931, 2-(2-cyanopropan-2-yl)-N-(4-methyl-3-(6-(methylsulfonyl)-5-morpholinopyridazin-3-yl)phenyl)isonicotinamide]
IC50 [1]: 2.7 nM

Cc1ccc(NC(=O)c2cccc(C(C)(C)S(C)(=O)=O)c2)cc1-c1cc(N2CCOCC2)c(=O)n(C)n1 [Example 637, N-(4-methyl-3-(1-methyl-5-morpholino-6-oxo-1,6-dihydropyridazin-3-yl)phenyl)-3-(2-(methylsulfonyl)propan-2-yl)benzamide]
IC50 [2]: 24.9 nM

Cc1ccc(NC(=O)c2ccnc(C(C)(F)F)c2)cc1-c1cc(OCCO)nc(N2CCOCC2)c1 [Example 1159, 2-(1,1-difluoroethyl)-N-(3-(2-(2-hydroxyethoxy)-6-morpholinopyridin-4-yl)-4-methylphenyl)isonicotinamide]
IC50 [1]: 0.75 nM

Cc1ccc(C(=O)Nc2ccccc2)cc1-c1cc(N2CCOCC2)n(C)c(=O)c1 [Example 518, 4-methyl-3-(1-methyl-6-morpholino-2-oxo-1,2-dihydropyridin-4-yl)-N-phenylbenzamide]
IC50 [2]: 79 nM

COc1ncc(-c2cc(NC(=O)c3ccnc(C(C)(C)F)c3)cnc2C)cc1N1CCOCC1 [Example 281, N-(6′-methoxy-2-methyl-5′-morpholino-[3,3′-bipyridin]-5-yl)-2-(2-fluoropropan-2-yl)isonicotinamide]
IC50 (Table 2, 3 hours reaction): 6.3 nM

Cc1ccc(NC(=O)c2ccnc(C(C)(F)F)c2)cc1-c1cc(NCCO)nc(N2CCOCC2)c1 [Example 1037, 2-(1,1-difluoroethyl)-N-(3-(2-((2-hydroxyethyl)amino)-6-morpholinopyridin-4-yl)-4-methylphenyl)isonicotinamide]
IC50 [1]: 1.07 nM

Cc1ccc(NC(=O)c2ccnc(C(C)(F)F)c2)cc1-c1cc(N2CCOCC2)nc(N2CC(O)C2)n1 [Example 772, 2-(1,1-difluoroethyl)-N-(3-(2-(3-hydroxyazetidin-1-yl)-6-morpholinopyrimidin-4-yl)-4-methylphenyl)isonicotinamide]
IC50 [2]: 1.9 nM

CCOc1cc(-c2cc(NC(=O)c3ccnc(C(C)(C)F)c3)cnc2C)cc(N2CCOCC2)n1 [Example 1142, N-(2′-ethoxy-2-methyl-6′-morpholino-[3,4′-bipyridin]-5-yl)-2-(2-fluoropropan-2-yl)isonicotinamide]
IC50 [1]: 3.18 nM

Cc1ccc(NC(=O)c2cccc(C(F)(F)F)c2)cc1-c1cc(N2CCOCC2)c(=O)n(C)n1 [Example 164, N-(4-methyl-3-(1-methyl-5-morpholino-6-oxo-1,6-dihydropyridazin-3-yl)phenyl)-3-(trifluoromethyl)benzamide]
IC50 (Table 2, 3 hours reaction): 1.7 nM

CCOc1ncc(-c2cc(NC(=O)c3cnnc(C(F)(F)F)c3)cnc2C)cc1N1CCOC[C@@H]1C [Example 286, (S)—N-(6′-ethoxy-2-methyl-5′-(3-methylmorpholino)-[3,3′-bipyridin]-5-yl)-6-(trifluoromethyl)pyridazine-4-carboxamide]
IC50 (Table 2, 3 hours reaction): 200 nM

CCOc1nnc(-c2cc(NC(=O)c3ccnc(C4CC4)c3)cnc2C)cc1N1CCOCC1 [Example 612, 2-cyclopropyl-N-(5-(6-ethoxy-5-morpholinopyridazin-3-yl)-6-methylpyridin-3-yl)isonicotinamide]
IC50 [2]: 1.8 nM

CCOc1nnc(-c2cc(NC(=O)c3ccnc(C(C)(C)F)c3)ccc2C)cc1N1CCOCC1 [Example 564, N-(3-(6-ethoxy-5-morpholinopyridazin-3-yl)-4-methylphenyl)-2-(2-fluoropropan-2-yl)isonicotinamide]
IC50 [2]: 1.3 nM

Cc1ccc(NC(=O)c2cccc(C(F)(F)F)c2)cc1-c1cnc(N2CCOCC2)s1 [Example 198, N-(4-methyl-3-(2-morpholinothiazol-5-yl)phenyl)-3-(trifluoromethyl)benzamide]
IC50 (Table 2, 3 hours reaction): 0.8 nM

Cc1ncc(NC(=O)c2ccnc(C(F)F)c2)cc1-c1cc(N2CCOCC2)n(C)c(=O)c1 [Example 508, 2-(difluoromethyl)-N-(1′,2-dimethyl-6′-morpholino-2′-oxo-1′,2′-dihydro-[3,4′-bipyridin]-5-yl)isonicotinamide]
IC50 [2]: 7.8 nM

Cc1ncc(NC(=O)c2cccc(C(F)(F)F)c2)cc1-c1cnc(OC[C@@H](C)O)c(N2CCOCC2)c1 [Example 984, (R)—N-(6′-(2-hydroxypropoxy)-2-methyl-5′-morpholino-[3,3′-bipyridin]-5-yl)-3-(trifluoromethyl)benzamide]
IC50 [1]: 2.28 nM

CCNCc1ccc(C(=O)Nc2ccc(C)c(-c3cc(N4CCOCC4)c(OCC)nn3)c2)cc1C(F)(F)F [Example 575, N-(3-(6-ethoxy-5-morpholinopyridazin-3-yl)-4-methylphenyl)-4-((ethylamino)methyl)-3-(trifluoromethyl)benzamide]
IC50 [2]: 2.9 nM

COc1ccc(C(=O)Nc2cnc(Cl)c(-c3cc(N4CCOCC4)c(=O)n(C)c3)c2)cc1C(F)(F)F [Example 408, N-(2-chloro-1′-methyl-5′-morpholino-6′-oxo-1′,6′-dihydro-[3,3-bipyridin]-5-yl)-4-methoxy-3-(trifluoromethyl)benzamide]
IC50 (Table 2, 3 hours reaction): 6.8 nM

Cc1ncc(NC(=O)c2cnnc(C3CC3)c2)cc1-c1cc(N2CCOCC2)nc(N2CC(C)(O)C2)c1 [Example 1101, 6-cyclopropyl-N-(2′-(3-hydroxy-3-methylazetidin-1-yl)-2-methyl-6′-morpholino-[3,4′-bipyridin]-5-yl)pyridazine-4-carboxamide]
IC50 [1]: 13.7 nM
